Measured values as given in ChEMBL document CHEMBL5465560, “Selectivity Literature for EUbOPEN Chemogenomic Library” (2024).

Assays:
[1] = molecular target: Cyclin-dependent kinase 11B (Homo sapiens) (UniProt P21127); settings: at 10 µM
[2] = molecular target: T1, Tyrosine-protein kinase TXK (Homo sapiens) (UniProt P42681); assay: Selectivity interaction (KinomeScan (DiscoverX)) EUB0000092b TXK; settings: at 10 µM
T1 sequence (whole entry): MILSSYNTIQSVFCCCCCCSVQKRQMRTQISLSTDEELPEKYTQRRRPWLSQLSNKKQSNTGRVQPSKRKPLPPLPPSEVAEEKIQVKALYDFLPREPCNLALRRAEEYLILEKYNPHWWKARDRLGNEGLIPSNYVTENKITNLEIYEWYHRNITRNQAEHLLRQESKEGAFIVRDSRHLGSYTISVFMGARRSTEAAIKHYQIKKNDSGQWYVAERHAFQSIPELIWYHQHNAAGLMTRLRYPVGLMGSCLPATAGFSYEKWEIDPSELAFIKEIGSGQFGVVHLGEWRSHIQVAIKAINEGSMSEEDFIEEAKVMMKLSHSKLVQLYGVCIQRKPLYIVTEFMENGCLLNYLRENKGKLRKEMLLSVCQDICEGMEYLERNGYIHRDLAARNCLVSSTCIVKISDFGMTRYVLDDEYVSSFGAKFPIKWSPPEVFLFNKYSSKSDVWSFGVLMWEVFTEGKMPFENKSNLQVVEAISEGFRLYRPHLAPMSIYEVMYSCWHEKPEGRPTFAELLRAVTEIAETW

[3] = molecular target: Dual specificity protein kinase CLK3 (Homo sapiens, UniProt P49761); assay: Selectivity interaction (ProQinase) EUB0000171b CLK3
[4] = molecular target: Cyclin-dependent kinase-like 1 (Homo sapiens) (UniProt Q00532); assay: Selectivity interaction (Kinase panel (DSF assay)) EUB0001559a CDKL1
[5] = molecular target: Dual specificity tyrosine-phosphorylation-regulated kinase 1B (Homo sapiens, UniProt Q9Y463); assay: Selectivity interaction (KinomeScan (DiscoverX)) EUB0000666a DYRK1B; settings: at 10 µM
[6] = molecular target: T2, Activin receptor type-1 (Homo sapiens) (UniProt Q04771); assay: Selectivity interaction (KinomeScan (DiscoverX)) EUB0000666a ACVR1; settings: at 10 µM
T2 sequence (whole entry): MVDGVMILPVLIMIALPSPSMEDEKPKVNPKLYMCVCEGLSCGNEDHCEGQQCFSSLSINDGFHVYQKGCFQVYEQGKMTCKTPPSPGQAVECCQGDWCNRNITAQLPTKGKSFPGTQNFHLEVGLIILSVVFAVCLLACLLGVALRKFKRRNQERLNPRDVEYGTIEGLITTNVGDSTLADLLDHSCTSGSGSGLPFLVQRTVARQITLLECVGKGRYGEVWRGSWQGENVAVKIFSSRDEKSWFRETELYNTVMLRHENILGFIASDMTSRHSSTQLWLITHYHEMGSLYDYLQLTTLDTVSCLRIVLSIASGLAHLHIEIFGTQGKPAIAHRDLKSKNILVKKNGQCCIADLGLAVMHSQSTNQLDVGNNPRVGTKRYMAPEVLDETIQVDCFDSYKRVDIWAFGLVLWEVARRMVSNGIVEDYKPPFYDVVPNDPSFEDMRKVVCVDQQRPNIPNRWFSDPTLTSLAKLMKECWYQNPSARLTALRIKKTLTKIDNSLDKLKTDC

[7] = molecular target: Non-receptor tyrosine-protein kinase TYK2 (Homo sapiens, UniProt P29597); assay: Selectivity interaction (ActivX KiNativ screen (kinase selectivity in THP-1 cell lysates)) EUB0000639a TYK2; type: subcellular; settings: lysate, at 5 µM
[8] = molecular target: DNA-dependent protein kinase catalytic subunit (Homo sapiens) (UniProt P78527); assay: Selectivity interaction (ActivX KiNativ screen (kinase selectivity in THP-1 cell lysates)) EUB0000639a PRKDC; type: subcellular; settings: lysate, at 0.04 µM
[9] = molecular target: Serine/threonine-protein kinase SMG1 (Homo sapiens) (UniProt Q96Q15); assay: Selectivity interaction (ActivX KiNativ screen (kinase selectivity in THP-1 cell lysates)) EUB0000639a SMG1; type: subcellular; settings: lysate, at 0.04 µM
[10] = molecular target: Cell division control protein 42 homolog (Homo sapiens) (UniProt P60953); assay: Selectivity interaction (SelectScreen profiling (Invitrogen)) EUB0000607a CDC42; settings: at 2 µM
[11] = molecular target: Cyclin-dependent kinase-like 1 (Homo sapiens) (UniProt Q00532); assay: Selectivity interaction (KinomeScan (DiscoverX)) EUB0000607a CDKL1; settings: at 10 µM
[12] = molecular target: Interleukin-1 receptor-associated kinase 1 (Homo sapiens) (UniProt P51617); assay: Selectivity interaction (KinomeScan (DiscoverX)) EUB0001049a IRAK1; settings: at 1 µM
[13] = molecular target: T3, Histone-lysine N-methyltransferase SETD7 (Homo sapiens) (UniProt Q8WTS6); settings: at 10 µM
T3 sequence (whole entry): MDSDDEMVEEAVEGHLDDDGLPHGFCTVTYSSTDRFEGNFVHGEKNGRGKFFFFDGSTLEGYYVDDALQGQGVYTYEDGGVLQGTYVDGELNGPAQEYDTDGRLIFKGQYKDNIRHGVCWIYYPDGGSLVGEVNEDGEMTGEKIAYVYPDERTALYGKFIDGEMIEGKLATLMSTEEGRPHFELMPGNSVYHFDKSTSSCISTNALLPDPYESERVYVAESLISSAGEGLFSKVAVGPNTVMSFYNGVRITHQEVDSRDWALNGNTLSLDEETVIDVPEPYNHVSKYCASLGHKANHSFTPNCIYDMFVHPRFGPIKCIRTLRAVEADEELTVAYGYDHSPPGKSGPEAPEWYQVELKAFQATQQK

[14] = molecular target: T4, Histone-arginine methyltransferase CARM1 (Homo sapiens) (UniProt Q86X55); settings: KMS-12-PE, at 3 µM
T4 sequence (whole entry): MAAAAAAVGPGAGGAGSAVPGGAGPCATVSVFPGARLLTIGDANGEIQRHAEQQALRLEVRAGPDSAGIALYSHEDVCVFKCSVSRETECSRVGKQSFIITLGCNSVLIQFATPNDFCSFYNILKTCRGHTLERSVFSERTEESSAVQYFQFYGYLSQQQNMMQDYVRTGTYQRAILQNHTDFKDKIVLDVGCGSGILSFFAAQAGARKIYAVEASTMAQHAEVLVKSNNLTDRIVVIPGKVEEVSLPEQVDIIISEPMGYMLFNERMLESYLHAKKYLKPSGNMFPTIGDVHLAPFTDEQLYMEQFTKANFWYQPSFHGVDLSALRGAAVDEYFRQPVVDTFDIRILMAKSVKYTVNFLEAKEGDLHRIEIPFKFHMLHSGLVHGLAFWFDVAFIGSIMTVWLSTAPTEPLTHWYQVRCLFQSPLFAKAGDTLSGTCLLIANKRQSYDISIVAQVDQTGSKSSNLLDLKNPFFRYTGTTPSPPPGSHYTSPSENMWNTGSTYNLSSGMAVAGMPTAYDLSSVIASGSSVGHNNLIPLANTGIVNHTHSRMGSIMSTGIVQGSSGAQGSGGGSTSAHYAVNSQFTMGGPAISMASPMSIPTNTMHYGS

Ephrin type-A receptor 4 = Ephrin type-A receptor 4 (Homo sapiens, UniProt P54764); assay: Selectivity interaction (KinomeScan (DiscoverX)) EUB0001619a EPHA4; settings: at 1 µM
Sequence of Ephrin type-A receptor 4 (P54764 whole entry): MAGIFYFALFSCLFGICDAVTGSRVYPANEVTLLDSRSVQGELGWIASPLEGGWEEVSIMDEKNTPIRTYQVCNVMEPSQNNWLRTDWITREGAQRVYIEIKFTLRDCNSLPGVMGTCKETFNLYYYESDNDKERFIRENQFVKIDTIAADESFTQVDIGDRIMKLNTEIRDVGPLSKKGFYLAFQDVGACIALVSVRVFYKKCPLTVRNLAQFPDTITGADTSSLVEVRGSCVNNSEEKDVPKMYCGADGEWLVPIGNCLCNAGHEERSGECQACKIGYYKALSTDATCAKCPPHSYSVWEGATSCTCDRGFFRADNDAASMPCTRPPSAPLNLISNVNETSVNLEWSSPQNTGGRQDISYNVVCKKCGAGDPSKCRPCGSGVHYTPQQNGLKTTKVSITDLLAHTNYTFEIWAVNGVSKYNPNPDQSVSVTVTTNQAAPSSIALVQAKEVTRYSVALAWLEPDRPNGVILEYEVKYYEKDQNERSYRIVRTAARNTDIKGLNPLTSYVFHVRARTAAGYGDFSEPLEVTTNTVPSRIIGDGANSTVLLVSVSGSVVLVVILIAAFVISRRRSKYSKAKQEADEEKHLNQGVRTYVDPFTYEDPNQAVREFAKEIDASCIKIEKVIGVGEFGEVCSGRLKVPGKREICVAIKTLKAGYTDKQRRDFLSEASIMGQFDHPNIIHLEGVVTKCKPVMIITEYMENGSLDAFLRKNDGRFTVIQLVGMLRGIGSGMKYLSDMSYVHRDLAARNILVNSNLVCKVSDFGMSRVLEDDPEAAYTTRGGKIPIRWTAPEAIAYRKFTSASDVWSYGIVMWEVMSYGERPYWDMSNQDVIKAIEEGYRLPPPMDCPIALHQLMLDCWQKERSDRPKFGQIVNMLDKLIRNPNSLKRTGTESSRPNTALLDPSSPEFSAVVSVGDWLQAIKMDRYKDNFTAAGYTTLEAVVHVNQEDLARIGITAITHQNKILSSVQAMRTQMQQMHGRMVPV

Sequence of Dual specificity protein kinase CLK3 (P49761 whole entry, looked up): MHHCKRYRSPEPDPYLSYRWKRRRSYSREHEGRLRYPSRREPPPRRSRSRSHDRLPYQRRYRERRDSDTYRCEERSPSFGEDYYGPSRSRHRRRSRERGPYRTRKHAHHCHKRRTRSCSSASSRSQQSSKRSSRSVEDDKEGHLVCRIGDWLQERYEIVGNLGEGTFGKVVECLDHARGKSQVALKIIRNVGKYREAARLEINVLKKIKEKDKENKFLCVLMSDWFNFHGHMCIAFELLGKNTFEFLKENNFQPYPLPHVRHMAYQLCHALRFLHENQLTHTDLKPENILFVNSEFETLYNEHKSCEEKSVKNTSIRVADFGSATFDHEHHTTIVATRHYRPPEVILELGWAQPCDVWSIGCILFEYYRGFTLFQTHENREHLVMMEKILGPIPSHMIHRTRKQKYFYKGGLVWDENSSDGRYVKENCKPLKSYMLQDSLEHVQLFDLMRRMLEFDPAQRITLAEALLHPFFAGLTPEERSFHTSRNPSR
Sequence of Cyclin-dependent kinase-like 1 (Homo sapiens) (Q00532 whole entry): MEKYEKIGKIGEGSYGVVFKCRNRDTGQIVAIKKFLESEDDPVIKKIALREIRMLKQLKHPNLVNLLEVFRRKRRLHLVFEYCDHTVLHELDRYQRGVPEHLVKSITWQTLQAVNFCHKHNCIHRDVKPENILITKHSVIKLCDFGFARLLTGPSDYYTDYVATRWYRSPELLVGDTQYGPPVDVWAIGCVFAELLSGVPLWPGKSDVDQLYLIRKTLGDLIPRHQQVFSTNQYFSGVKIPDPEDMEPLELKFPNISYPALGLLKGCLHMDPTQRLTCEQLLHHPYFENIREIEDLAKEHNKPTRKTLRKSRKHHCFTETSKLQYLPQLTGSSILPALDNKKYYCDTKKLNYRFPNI
Sequence of Cyclin-dependent kinase 11B (Homo sapiens) (P21127 whole entry): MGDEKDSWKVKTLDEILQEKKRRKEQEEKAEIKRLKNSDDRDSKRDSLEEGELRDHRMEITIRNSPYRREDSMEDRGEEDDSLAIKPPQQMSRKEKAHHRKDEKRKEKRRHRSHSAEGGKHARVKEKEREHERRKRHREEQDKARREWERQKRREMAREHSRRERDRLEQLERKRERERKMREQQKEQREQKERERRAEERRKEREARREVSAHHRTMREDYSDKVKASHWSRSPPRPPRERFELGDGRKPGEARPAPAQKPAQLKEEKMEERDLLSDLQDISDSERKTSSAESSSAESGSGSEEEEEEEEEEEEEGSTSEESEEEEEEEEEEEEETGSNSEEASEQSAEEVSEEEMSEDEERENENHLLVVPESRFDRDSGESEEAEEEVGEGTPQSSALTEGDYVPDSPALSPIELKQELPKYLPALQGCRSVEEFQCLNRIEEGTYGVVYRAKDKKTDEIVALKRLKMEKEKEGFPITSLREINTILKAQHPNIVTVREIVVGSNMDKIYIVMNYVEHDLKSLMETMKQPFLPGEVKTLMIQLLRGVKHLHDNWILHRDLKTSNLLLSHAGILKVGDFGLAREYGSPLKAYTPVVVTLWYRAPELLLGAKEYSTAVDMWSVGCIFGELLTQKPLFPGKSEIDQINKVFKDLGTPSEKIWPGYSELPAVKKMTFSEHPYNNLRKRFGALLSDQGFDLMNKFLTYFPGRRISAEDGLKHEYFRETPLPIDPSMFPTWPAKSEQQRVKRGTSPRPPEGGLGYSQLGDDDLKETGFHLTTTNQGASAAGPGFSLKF
Sequence of Dual specificity tyrosine-phosphorylation-regulated kinase 1B (Q9Y463 whole entry, looked up): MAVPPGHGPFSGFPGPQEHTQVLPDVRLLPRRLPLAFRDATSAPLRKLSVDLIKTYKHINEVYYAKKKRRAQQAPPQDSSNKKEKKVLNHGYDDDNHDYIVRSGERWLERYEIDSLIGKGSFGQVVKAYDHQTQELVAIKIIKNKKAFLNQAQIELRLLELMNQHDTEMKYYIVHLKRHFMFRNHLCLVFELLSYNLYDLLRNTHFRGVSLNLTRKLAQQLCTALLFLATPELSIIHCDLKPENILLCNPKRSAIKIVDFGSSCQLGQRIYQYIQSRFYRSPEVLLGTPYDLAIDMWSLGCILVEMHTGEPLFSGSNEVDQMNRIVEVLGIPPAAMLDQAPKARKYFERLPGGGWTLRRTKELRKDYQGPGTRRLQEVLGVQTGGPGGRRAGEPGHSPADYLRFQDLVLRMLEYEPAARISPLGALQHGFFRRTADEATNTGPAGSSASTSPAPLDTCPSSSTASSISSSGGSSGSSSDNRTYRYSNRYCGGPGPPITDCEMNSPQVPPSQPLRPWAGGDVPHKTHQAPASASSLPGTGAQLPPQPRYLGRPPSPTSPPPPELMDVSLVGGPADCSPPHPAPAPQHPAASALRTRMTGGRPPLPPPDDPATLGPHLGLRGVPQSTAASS
Sequence of Non-receptor tyrosine-protein kinase TYK2 (P29597 whole entry): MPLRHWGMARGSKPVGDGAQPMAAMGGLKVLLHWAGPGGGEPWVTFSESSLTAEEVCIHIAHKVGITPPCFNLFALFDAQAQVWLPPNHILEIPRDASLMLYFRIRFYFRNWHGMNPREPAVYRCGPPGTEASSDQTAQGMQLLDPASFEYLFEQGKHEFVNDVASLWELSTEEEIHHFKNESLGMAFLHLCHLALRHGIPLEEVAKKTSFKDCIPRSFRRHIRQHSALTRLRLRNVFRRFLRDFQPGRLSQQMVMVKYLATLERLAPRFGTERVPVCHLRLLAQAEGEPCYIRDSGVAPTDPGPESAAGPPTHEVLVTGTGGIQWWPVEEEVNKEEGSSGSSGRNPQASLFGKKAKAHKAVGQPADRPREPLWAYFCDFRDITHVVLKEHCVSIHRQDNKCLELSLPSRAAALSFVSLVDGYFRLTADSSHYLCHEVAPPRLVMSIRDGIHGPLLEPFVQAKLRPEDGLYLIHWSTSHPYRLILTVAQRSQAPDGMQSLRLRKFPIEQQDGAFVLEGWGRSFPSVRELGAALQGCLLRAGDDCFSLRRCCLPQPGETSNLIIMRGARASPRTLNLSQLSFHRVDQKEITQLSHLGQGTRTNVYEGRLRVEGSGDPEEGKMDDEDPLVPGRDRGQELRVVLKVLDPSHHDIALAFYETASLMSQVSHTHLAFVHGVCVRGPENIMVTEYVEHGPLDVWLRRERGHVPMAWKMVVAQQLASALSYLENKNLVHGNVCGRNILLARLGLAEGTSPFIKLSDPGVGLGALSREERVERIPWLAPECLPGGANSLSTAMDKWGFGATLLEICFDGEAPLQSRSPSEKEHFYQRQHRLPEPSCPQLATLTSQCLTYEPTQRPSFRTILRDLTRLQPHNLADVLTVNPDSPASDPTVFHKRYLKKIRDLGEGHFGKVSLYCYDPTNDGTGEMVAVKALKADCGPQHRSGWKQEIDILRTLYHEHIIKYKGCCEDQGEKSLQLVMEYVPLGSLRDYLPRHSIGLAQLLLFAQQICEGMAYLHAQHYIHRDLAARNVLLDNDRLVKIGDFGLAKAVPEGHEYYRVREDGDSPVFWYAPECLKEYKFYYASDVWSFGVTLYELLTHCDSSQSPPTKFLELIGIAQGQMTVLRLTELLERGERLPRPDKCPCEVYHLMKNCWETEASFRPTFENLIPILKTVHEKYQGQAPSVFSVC
Sequence of Cell division control protein 42 homolog (Homo sapiens) (P60953 whole entry, looked up): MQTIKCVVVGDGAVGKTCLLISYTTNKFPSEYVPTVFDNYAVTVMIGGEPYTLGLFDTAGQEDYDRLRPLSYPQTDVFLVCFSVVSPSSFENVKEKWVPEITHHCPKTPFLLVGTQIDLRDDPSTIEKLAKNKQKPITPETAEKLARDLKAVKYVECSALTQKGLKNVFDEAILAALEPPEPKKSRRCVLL

How did the % of control [1] turn out when `CCN(CC)CCCCNc1ncc2cc(-c3cc(OC)cc(OC)c3)c(NC(=O)NC(C)(C)C)nc2n1` was run?
Its % of control is 100%.

How did the % of control [2] turn out when `CCC(=O)N1CCN(c2ccc(-n3c(=O)ccc4cnc5ccc(-c6cnc7ccccc7c6)cc5c43)cc2C(F)(F)F)CC1` was run?
Its % of control is 54%.

What does the source list for `C=CC(=O)Nc1cccc(C(=O)Nc2ccc(Nc3cc(-c4[nH]c(SC)nc4C)ccn3)cc2)c1`?
% of control ([3]; at 1 µM): 98%; % of control ([3]; at 5 µM): 89%

`CN(C(=O)c1cnn2cccnc12)c1cc2c(cc1N1CCOCC1)C(=O)N(C[C@@H](F)C(C)(C)O)C2` was tested. Which dTM [4] did it give?
The dTM was 1.2 K.

Which results are given for `O=C(NOC[C@H](O)CO)c1ccc(F)c(F)c1Nc1ccc(I)cc1F`?
% of control [5]: 98%; % of control [6]: 76%

How did the % of inhibition [7] turn out when `CC[C@@H]1[C@H](F)C(=O)N[C@@H]1COc1nccc2cc(C(N)=O)c(OC)cc12` [ZIMLOVISERTIB] was run?
The % of inhibition was 37.4%.

And the % of inhibition [8]?
The % of inhibition was -0.6%.

What about the % of inhibition [9] of the same compound?
The % of inhibition was 4.1%.

Which results are given for `CNC(=O)Nc1ccc(-c2nc(N3CC4CCC(C3)O4)c3cnn(C4CCC5(CC4)OCCO5)c3n2)cc1`?
% of inhibition [10]: 7%; % of control [11]: 84%

How did the % of control [12] turn out when `COc1cc(Nc2nc(C)cc(-c3cnn4nc(OC)ccc34)n2)cc(C(F)(F)F)c1` was run?
Its % of control is 91%.

Which results are given for `CNCCN1CCC(c2cc(CN(C)C(=O)c3cccc(Oc4ccccc4)c3)ccn2)CC1`?
% activity [13]: > 90%; % of growth rate [14]: -4.4%

How did the % of control (Ephrin type-A receptor 4) turn out when `N#Cc1cccc(-c2c[nH]c3ncnc(N4CCOCC4)c23)c1` was run?
The % of control was 100%.
